# Test results taken from US4950686A, “Anti-mycoplasma agent” (Shionogi & Co., Ltd., priority 1986, dated 1990).
# Key:
# [1] = tested on: Mycoplasma gallisepticum MR-1 (wild strain, tylosin-resistant); experiment: Anti-mycoplasma activity in vitro (MIC, broth dilution), strain MR-1; type: cell-based; settings: Mg MR-1, 37° C., 7 days
# In short: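 Broth dilution in chick PPLO broth with 20% equine serum; 2-fold compound dilutions, inoculum diluted to 10^6 CCU/ml. Incubated 7 days at 37 °C; MIC recorded.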
# [2] = tested on: Mycoplasma hyopneumoniae ST-11 (standard strain); experiment: Anti-mycoplasma activity in vitro (MIC, broth dilution), strain ST-11; type: cell-based; settings: Mesomycoplasma hyopneumoniae, Mh ST-11; read-out: MIC
# In short: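 MIC by broth dilution in Hanks' solution with 0.5% lactoalbumin, yeast, equine serum and phenol red, pH 7.4-7.6. Inoculum: 3-4-day culture, turned yellow, diluted 10-fold in broth (subcultured first if yellowing took over 4 days).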
# [3] = tested on: Mycoplasma gallisepticum MR-1 (wild strain, tylosin-resistant); experiment: Mycoplasma gallisepticum air-sac infection method in chicken, strain MR-1;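 on Index of Isolation: index = (P×1 + Q×2 + R×3)/S with range 0 to 6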; type: in vivo, Mycoplasma gallisepticum; SPF chicken (white leghorn); settings: 100 mg/kg × once oral, 10 mg/ml sol. b
# Description: (2) Test of Effectiveness Mycoplasma gallisepticum air-sac infection method
# MR-1 (wild strain, tylosin-resistant)
# Inoculation: To the right air-sac of 9 days old SPF chicken (a white leghorn) which has abstained from water and feed one day before is inoculated 0.20-0.25 ml/chicken of fresh mycoplasma culture incubated for 24-48 hr and diluted with broth (usually 100 times). The concentration in Table 2 is shown in a unit of mg/ml.
# Medium: Chick PPLO broth supplemented with 15% equine serum (Eiken Kagaku Co., Ltd.)
# Administration: A compound of this invention dissolved or suspended in the following solution is orally and forcibly administered once by a cannula immediately after the infection.
# Anatomization and Isolation of Microorganism: The chickens are anatomized 5 days after the infection, and the right and left air sacs are investigated whether they are attacked with a disease or not. The change caused by the disease is represented in four degrees; -: no change, +: slight, ++: medium and +++: serious. Microorganism is isolated from the right and left air-sacs and the trachea by using a sterilized applicator.
# Judgement: Judgement is done through an index of an air-sac disease and an index of a microorganism-isolation.
# Index of an air-sac-disease: First, indexes in the right and left air-sacs are separately calculated according to the following formula;
# {degree of disease (0-3)×chickens}/anatomized chickens
# and the index is calculated by the following formula;
# (index of right air-sac)×1+(index of left air-sac)×2
# Index of a microorganism isolation:
# P: chickens from the right air-sac of which microorganism is isolated,
# Q: chickens from the trachea of which microorganism is isolated,
# R: chickens from the left air-sac of which microorganism is isolated, and
# S: chickens investigated.
smiles,measurement,setting,value
"O=c1cccccc1O [Tropolone, tropolone]",MIC,[1],0.39 µg/mL
same,MIC,[2],0.78 µg/mL
same,"Change of air-sac, left: + (chickens)",[3]; inoculum 0.3 × 10^5,0
same,"Change of air-sac, left: ++ (chickens)",[3]; inoculum 0.3 × 10^5,0
same,"Change of air-sac, left: +++ (chickens)",[3]; inoculum 0.3 × 10^5,0
same,"Change of air-sac, left: - (chickens)",[3]; inoculum 0.3 × 10^5,6
same,"Change of air-sac, right: + (chickens)",[3]; inoculum 0.3 × 10^5,0
same,"Change of air-sac, right: ++ (chickens)",[3]; inoculum 0.3 × 10^5,0
same,"Change of air-sac, right: +++ (chickens)",[3]; inoculum 0.3 × 10^5,0
same,"Change of air-sac, right: - (chickens)",[3]; inoculum 0.3 × 10^5,6
same,"Isolation, L (left air-sac)",[3]; inoculum 0.3 × 10^5,3
same,"Isolation, R (right air-sac)",[3]; inoculum 0.3 × 10^5,4
same,"Isolation, T (trachea)",[3]; inoculum 0.3 × 10^5,3
same,Mycoplasma Isolated Chickens,[3]; inoculum 0.3 × 10^5,6
same,Index of Isolation,"[3]; inoculum 0.3 × 10^5, range 0-6.0",3.2
same,Index of Disease,"[3]; inoculum 0.3 × 10^5, range 0-9.0",0
